We go through five molecules from ChEMBL document CHEMBL2406942, “Design, synthesis and neuroprotective evaluation of novel tacrine-benzothiazole hybrids as multi-targeted compounds against Alzheimer's disease” (Bioorg Med Chem, 2013).

Active and inactive are the calls of the source. The calls are words filed in the database; no cut-off is given here. Some results are limits rather than exact numbers.

For assay [1], the target named is Amyloid-beta precursor protein (Homo sapiens) (UniProt P05067). In words: Neuroprotective activity against amyloid beta (1 to 42)-induced toxicity in mild cognitive impairment patient platelet-SH-SY5Y cell cybrid at 2.5 uM preincubated for 3 hrs by MTT assay. Format: functional, cell-based. A general note: Tetrazolium dyes change colour on reduction, which living cells bring about.
Chain of Amyloid-beta precursor protein (Homo sapiens) (P05067 whole entry): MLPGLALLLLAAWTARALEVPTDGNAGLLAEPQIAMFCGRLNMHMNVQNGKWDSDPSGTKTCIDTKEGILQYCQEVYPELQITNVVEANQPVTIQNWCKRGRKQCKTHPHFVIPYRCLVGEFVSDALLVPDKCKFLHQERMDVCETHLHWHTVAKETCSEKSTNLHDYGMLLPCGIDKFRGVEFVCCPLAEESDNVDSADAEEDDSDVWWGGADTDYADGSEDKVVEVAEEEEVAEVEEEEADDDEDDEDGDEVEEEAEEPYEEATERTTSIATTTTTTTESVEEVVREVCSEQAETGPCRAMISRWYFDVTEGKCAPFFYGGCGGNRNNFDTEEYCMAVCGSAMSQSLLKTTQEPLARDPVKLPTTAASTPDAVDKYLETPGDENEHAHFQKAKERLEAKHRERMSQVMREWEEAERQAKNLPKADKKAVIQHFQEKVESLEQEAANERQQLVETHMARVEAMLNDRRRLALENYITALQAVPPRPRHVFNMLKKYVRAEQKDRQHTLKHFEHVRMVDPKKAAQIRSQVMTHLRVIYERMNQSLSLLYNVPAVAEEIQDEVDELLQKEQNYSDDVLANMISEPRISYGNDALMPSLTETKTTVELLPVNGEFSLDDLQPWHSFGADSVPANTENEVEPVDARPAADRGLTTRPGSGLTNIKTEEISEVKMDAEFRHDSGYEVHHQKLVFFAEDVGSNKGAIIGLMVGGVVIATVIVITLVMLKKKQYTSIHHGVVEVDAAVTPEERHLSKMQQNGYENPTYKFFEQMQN

Assay [2] shares this target. Kind of assay: Neuroprotective activity against amyloid beta (1 to 42)-induced toxicity in Alzheimer's disease patient platelet-SH-SY5Y cell cybrid at 2.5 uM preincubated for 3 hrs by MTT assay. Format: functional, cell-based.
The target in assay [3] is Acetylcholinesterase (Electrophorus electricus, UniProt O42275).
Chain of Acetylcholinesterase (O42275 whole entry): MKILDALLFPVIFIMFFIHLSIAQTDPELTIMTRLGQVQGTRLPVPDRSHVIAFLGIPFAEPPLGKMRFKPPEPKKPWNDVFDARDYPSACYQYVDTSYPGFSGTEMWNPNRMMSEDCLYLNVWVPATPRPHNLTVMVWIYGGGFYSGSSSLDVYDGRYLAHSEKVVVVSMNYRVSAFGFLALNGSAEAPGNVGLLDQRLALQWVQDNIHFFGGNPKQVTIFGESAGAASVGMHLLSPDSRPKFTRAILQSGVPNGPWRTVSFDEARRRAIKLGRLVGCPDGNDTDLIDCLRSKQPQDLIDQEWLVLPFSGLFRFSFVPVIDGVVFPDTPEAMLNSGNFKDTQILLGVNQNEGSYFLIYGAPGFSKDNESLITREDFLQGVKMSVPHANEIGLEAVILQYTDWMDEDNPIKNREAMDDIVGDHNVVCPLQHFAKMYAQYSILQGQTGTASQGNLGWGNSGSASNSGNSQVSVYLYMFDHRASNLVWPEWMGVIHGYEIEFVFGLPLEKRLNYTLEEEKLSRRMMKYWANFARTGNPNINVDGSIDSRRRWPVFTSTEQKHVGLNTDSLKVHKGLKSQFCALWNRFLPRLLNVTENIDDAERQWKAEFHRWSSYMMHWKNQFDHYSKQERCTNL
Description: Inhibition of electric eel AChE using acetylcholine iodide as substrate preincubated for 15 mins prior to substrate addition by Ellman's method
Assay [4] has as its target Amyloid-beta precursor protein (Homo sapiens) (UniProt P05067). Kind of assay: Neuroprotective activity against amyloid beta (1 to 42)-induced toxicity in human SH-SY5Y cells at 2.5 uM preincubated for 3 hrs by MTT assay. In kind it is functional, cell-based.
The test system of assay [5] is Radical scavenging activity.
Description: Antioxidant activity assessed as DPPH free radical scavenging activity after 30 mins by spectrophotometric analysis
For assay [6], the system named is Radical scavenging activity. In words: Antioxidant activity assessed as DPPH free radical scavenging activity at 1 mM after 30 mins by spectrophotometric analysis relative to control. Format: functional. (In general: Loss of DPPH colour is used to gauge radical scavenging.)
The test system of assay [7] is Radical scavenging activity. In words: Antioxidant activity assessed as DPPH free radical scavenging activity at 1.32 mM after 30 mins by spectrophotometric analysis relative to control. In kind it is functional.
In assay [8] the target is Amyloid-beta precursor protein (Homo sapiens) (UniProt P05067). In words: Neuroprotective activity against amyloid beta (1 to 42)-induced toxicity in normal cognition human platelet-SH-SY5Y cell cybrid at 2.5 uM preincubated for 3 hrs by MTT assay. In kind it is functional, cell-based.
Assay [9] relates to Radical scavenging activity. In words: Antioxidant activity assessed as DPPH free radical scavenging activity at 1.22 mM after 30 mins by spectrophotometric analysis relative to control. In kind it is functional.

On to `O=C(CCCCCNc1c2c(nc3ccccc13)CCCC2)NCCCCCc1nc2ccccc2s1`, for which the result in [1], in assay [2] and in assay [4] was Active. In addition, the IC50 (usually the concentration that gives 50% inhibition) in [3] is 0.76 µM. Besides, in [5], the EC50 (usually the concentration giving half of the maximal effect) is greater than 1000 µM. Also, the Activity in [6] was found to be 25%.
In turn, `O=C(CCCCCNc1c2c(nc3ccccc13)CCCC2)Nc1ccc(-c2nc3ccccc3s2)cc1` gave an IC50 in assay [3] of 0.34 µM. Moreover, the Activity in assay [7] stood at 32%; in assay [6] it was 25%. In addition, the result in assay [8] was Active.
With `O=C(CCCCCNc1c2c(nc3ccccc13)CCCC2)NCc1ccc(-c2nc3ccccc3s2)cc1`, in [3], half-maximal inhibition (IC50) was put at 1.84 µM. The molecule also yielded an EC50 in assay [5] greater than 1000 µM. Further, the Activity in [6] turned out to be 25%.
Take `O=C(CCCCCNc1c2c(nc3ccccc13)CCCC2)NCCCc1nc2ccccc2s1`: the outcome in assay [1], in assay [2] and in assay [4] was Active. Also, the Activity in assay [9] and in assay [6] was 25% each time. The same molecule had an IC50 in assay [3] of 0.96 µM.
As for `O=C(CCCCCNc1c2c(nc3ccccc13)CCCC2)Nc1ccc(Cc2nc3ccccc3s2)cc1`, the IC50 in [3] worked out at 0.57 µM. For the same molecule, the EC50 in [5] is greater than 1000 µM. The Activity in assay [6] came out at 25%.
